We go through one compound from paper PMC10743883, “Identification and Functional Analysis of an Epsilon Class Glutathione S-Transferase Gene Associated with α-Pinene Adaptation in Monochamus alternatus” (International Journal of Molecular Sciences, 2023).

This experiment has as its system MaGSTe3. Briefly: GSH conjugation, absorbance at […] nm, Michaelis-Menten fit. Format: biochemical, Monochamus alternatus. The conditions noted are these: co-substrate GSH (concentration not given); 100 mM PBS; CDNB varied, printed range 0–400 mM.

For `O=[N+]([O-])c1ccc(Cl)c([N+](=O)[O-])c1` [1-chloro-2,4-dinitrobenzene], the Km came out at 1240 ± 210 µM.
